Laboratory results reported in patent US8653088B2, “Compositions useful as inhibitors of protein kinases” (Vertex Pharmaceuticals Incorporated, priority 2003, dated 2014).
pKi: −log10 of the molar value.

The molecules below were run against GSK-3β (AA 1-420) (Homo sapiens, UniProt P49841) (assay: Inhibition of GSK-3, standard coupled enzyme system). Details: 20 μM ATP, 300 μM peptide, 20 nM GSK-3β, 30° C.
Type: biochemical
Protocol: Compounds were screened for their ability to inhibit GSK-3β (AA 1-420) activity using a standard coupled enzyme system (Fox et al. Protein Sci. 7, p. 2249 (1998)). Reactions were carried out in a solution containing 100 mM HEPES (pH 7.5), 10 mM MgCl2, 25 mM NaCl, 300 μM NADH, 1 mM DTT and 1.5% DMSO. Final substrate concentrations in the assay were 20 μM ATP (Sigma Chemicals, St Louis, Mo.) and 300 μM peptide (American Peptide, Sunnyvale, Calif.). Reactions were carried out at 30° C. and 20 nM GSK-3β. Final concentrations of the components of the coupled enzyme system were 2.5 mM phosphoenolpyruvate, 300 μM NADH, 30 μg/ml pyruvate kinase and 10 μg/ml lactate dehydrogenase.
An assay stock buffer solution was prepared containing all of the reagents listed above with the exception of ATP and the test compound of interest. The assay stock buffer solution (175 μl) was incubated in a 96 well plate with 5 μl of the test compound of interest at final concentrations spanning 0.002 μM to 30 μM at 30° C. for 10 min. Typically, a 12 point titration was conducted by preparing serial dilutions (from 10 mM compound stocks) with DMSO of the test compounds in daughter plates. The reaction was initiated by the addition of 20 μl of ATP (final concentration 20 μM). Rates of reaction were obtained using a Molecular Devices Spectramax plate reader (Sunnyvale, Calif.) over 10 min at 30° C. The Ki values were determined from the rate data as a function of inhibitor concentration.

Sequence of GSK-3β (AA 1-420) (P49841 whole entry, species assumed, the tested form may be a part): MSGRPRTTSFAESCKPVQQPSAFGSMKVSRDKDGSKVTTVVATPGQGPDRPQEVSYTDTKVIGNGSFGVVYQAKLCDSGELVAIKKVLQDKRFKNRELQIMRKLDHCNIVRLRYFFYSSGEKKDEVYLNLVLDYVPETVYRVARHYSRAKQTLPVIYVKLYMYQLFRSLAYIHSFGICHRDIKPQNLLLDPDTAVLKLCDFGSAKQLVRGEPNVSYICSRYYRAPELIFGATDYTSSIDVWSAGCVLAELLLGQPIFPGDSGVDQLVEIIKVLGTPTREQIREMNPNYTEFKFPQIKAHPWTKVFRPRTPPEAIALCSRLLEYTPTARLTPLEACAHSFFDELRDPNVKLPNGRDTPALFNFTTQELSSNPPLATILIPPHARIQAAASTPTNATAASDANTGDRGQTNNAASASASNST

pKi, > 5.40:
COc1cccc(-n2nc3c(N)n[nH]c3cc2=O)c1 [Compound I-1]
Nc1n[nH]c2cc(=O)n(-c3ccccc3)nc12 [Compound I-2]
Nc1n[nH]c2cc(=O)n(-c3ccc(Oc4ccccc4)cc3)nc12 [Compound I-4]
Cc1ccc(-n2nc3c(N)n[nH]c3cc2=O)cc1 [Compound I-5]
COc1cc2ncnc(Nc3n[nH]c4cc(=O)n(-c5cccc(C(F)(F)F)c5)nc34)c2cc1OC [Compound I-6]
Nc1n[nH]c2cc(=O)n(-c3cccc([N+](=O)[O-])c3)nc12 [Compound I-7]
Nc1n[nH]c2cc(=O)n(-c3cccc(Cl)c3)nc12 [Compound I-8]
Nc1n[nH]c2cc(=O)n(-c3cccc(S(N)(=O)=O)c3)nc12 [Compound I-9]
